Experimental data reported in patent US20100227381A1, “ENHANCED BIODEGRADATION OF NON-AQUEOUS PHASE LIQUIDS USING SURFACTANT ENHANCED IN-SITU CHEMICAL OXIDATION” (VERUTEK TECHNOLOGIES, INC., priority 2007, published 2010).

Assays:
[1] = pure compound in water; cited from earlier work
[2] = Chlorinated DNAPL dissolution in control sample without cosolvent-surfactant (equilibrium solubility in water in presence of the DNAPL); conditions: 25 °C, thermodynamic from solid
Protocol: In order to test the treatment of chlorinated compounds, a chlorinated solvent DNAPL was obtained from a site consisting of chlorinated solvents and chlorinated semi-volatile compounds. […]
The data collected under the experimentation conditions presented in Table 2 were obtained at 25° C. with 60 rpm shaker table mixing for 48 hours. After the shaker was shut off, the samples sat quietly for 5 minutes before the supernatant was analyzed. DNAPLmax represents the maximum concentration of DNAPL that may dissolve, given the mass of DNAPL and the volume of water.
Samples from experiment number 1, 3, 5, 7, and 8 (control) were analyzed. Additionally, measurements of interfacial tension (IFT) were conducted on the samples after the 48-hour period.

Row | Compound | Pure Compound Aqueous Solubility [1] | solubility at 48 h [2] [µg/mL]
1 | ClC(Cl)=C(Cl)C(Cl)=C(Cl)Cl [Hexachlorobutadiene (HCBD), Hexachlorobutadiene] | 0.005 µg/mL | 
2 | ClC(Cl)(Cl)C(Cl)(Cl)Cl [Hexachloroethane (HCE), Hexachloroethane] | 50 µg/mL | 
3 | Clc1c(Cl)c(Cl)c2c(Cl)c(Cl)c(Cl)c(Cl)c2c1Cl [Octachloronaphthalene (OCN), Octachloronaphthalene] | insoluble | 
4 | ClC(Cl)=C(Cl)Cl [Tetrachloroethene (PCE), Tetrachloroethene] | 800 µg/mL | 140
